# Laboratory results published in patent publication US20260337661A1, “BIOMARKERS OF THE INTEGRATED STRESS RESPONSE AND USES THEREOF” (Calico Life Sciences LLC, priority 2023, published 2026).
# Tests used:
# [1] = tested on: ISR signature genes, including Atf5, Eif4ebp1 and Trib3; details: previously shown; cited from earlier work
# GDF15 [2] = test: GDF15 mRNA levels in the CNS (cerebellum, spinal cord) of VWM mice treated with 2BAct; format: in vivo, mouse; details: cerebellum and spinal cord, FIGS. 2C and 2D
# Protocol: (§1) FIGS. 2A and 2B depict gene expression of the ISR signature and GDF15 in the cerebellum (FIG. 2A) and spinal cord (FIG. 2B) of VWM mice and WT mice following 4 months of treatment with 30 mg/kg 2BAct in food pellets or control chow. Samples were also collected after a drug washout period of 2 months.
# FIG. 2C and FIG. 2D show GDF15 mRNA levels determined in cerebellum (FIG. 2C) and spinal cord (FIG. 2D) in WT mice, VWM mice, and VWM mice treated with 2BAct for 4 months and 2 months after cessation of 2BAct treatment. *p<0.05, **p<0.01, ***p<0.001 by Mann Whitney.
# (§2) In this example, a VWMD mouse model harboring a R191H mutation in eIF2B was used.
# (§3) VWM mice and WT mice were treated with 2BAct at 30 mg/kg for four months in food pellets. Subsequently, expressions of ISR signature genes and GDF15 in the cerebellum were determined.
# GDF15 [3] = test: GDF15 protein in astrocyte-derived exosomes (ADE) and neuron-derived exosomes (NDE) in plasma of VWM mice (immunoassay); format: in vivo, mouse
# Protocol: GDF15 protein was quantified in astrocyte-derived exosomes (ADEs) or neuron-derived exosomes (NDEs) in plasma using immunoassay. ADEs and NDEs were captured with anti-GLAST antibody and anti-SNAP25 antibody, respectively. GLAST is an astrocyte specific cell-surface protein; SNAP25 is highly expressed on neuronal membrane. The detection of GDF15 was performed by incubation with a specific anti-GDF15 antibody followed by an anti-mouse IgG conjugated to Horseradish peroxidase.
# GDF15 [4] = test: GDF15 protein levels in CSF and plasma of VWM mice treated with 2BAct; format: in vivo, mouse
# Protocol: FIG. 2E and FIG. 2F show GDF15 protein levels determined in CSF (FIG. 2E) and plasma (FIG. 2F) in WT mice, VWM mice, and VWM mice treated with 2BAct for 4 months and 2 months after cessation of 2BAct treatment. *p<0.05, **p<0.01, ***p<0.001 by Mann Whitney.
# as §2, §3
# [5] = previously shown; cited from earlier work
# ISR signature genes = test: Gene expression of the ISR signature in cerebellum and spinal cord of VWM mice treated with 2BAct; format: in vivo, mouse; details: 30 mg/kg in food pellets, four months
# Protocol: as §1, §2, §3
compound,measurement,setting,value
O=C(COc1ccc(Cl)c(F)c1)NC12CC(NC(=O)c3cnc(C(F)F)cn3)(C1)C2 [Compound 2BAct],"ISR signature genes, including Atf5, Eif4ebp1 and Trib3, in the brain",[1],suppress the ISR signature genes
same,GDF15 mRNA levels in the CNS following treatment,"GDF15 [2]; 30 mg/kg in food pellets, four months",markedly reduced
same,GDF15 mRNA levels in the CNS after cessation of treatment,GDF15 [2]; 2 months after cessation of 4-month treatment,rebounded to pre-treatment levels
same,GDF15 expression in plasma ADE,"GDF15 [3]; 30 mg/kg for 10 days, FIG. 7A",suppressed GDF15 expression in plasma ADE and NDE to the level present in WT mice
same,GDF15 expression in plasma NDE,"GDF15 [3]; 30 mg/kg for 10 days, FIG. 7B",suppressed GDF15 expression in plasma ADE and NDE to the level present in WT mice
same,downmodulation of GDF15 expression on VWM ADE,"GDF15 [3]; astrocyte derived exosomes, FIG. 7A",2.7 fold
same,downmodulation of GDF15 expression on VWM NDE,"GDF15 [3]; neuron derived exosomes, FIG. 7B",1.7 fold
same,CSF GDF15 levels after treatment,"GDF15 [4]; 30 mg/kg in food pellets, 4-month treatment, FIG. 2E",suppressed
same,plasma GDF15,"GDF15 [4]; 30 mg/kg in food pellets, four months, FIG. 2F",did not affect plasma GDF15
same,CSF GDF15 levels following drug washout,"GDF15 [4]; 2 months of drug washout after 4-month treatment, FIG. 2E",returned to pre-dose baseline levels
same,motor deficit,[5],corrected motor deficit
same,ISR gene expression signature in the cerebellum,ISR signature genes; FIG. 2A,inhibited the ISR gene expression signature
same,ISR gene expression signature in the spinal cord,ISR signature genes; FIG. 2B,inhibited the ISR gene expression signature
